From US9504251B2, “Pesticidal compositions and related methods” (Dow AgroSciences LLC, priority 2014, dated 2016)

How the values were obtained:
[1] = tested on: Sweetpotato Whitefly-crawler (Bemisia tabaci) (WF) (BEMITA); experiment: Sweetpotato whitefly-crawler (WF) foliar spray assay on cotton plants; assay type: in vivo; conditions: 216 h, 200 ppm foliar spray on cotton plants, graded after 9 days, Abbott-corrected % control, disclosed compounds (TABLE 2), read-out: WF % Control (or Mortality) rating
Description: Foliar spray assay for WF was prepared as follows: Cotton plants (Gossypium hirsutum) grown in 3-inch pots, with 1 small (4-5 cm) true leaf, were used as test substrate. The plants were infested with 200-400 whitefly eggs 4-5 days prior to chemical application. Four pots with individual plants were used for each treatment. Tested compounds (2 mg) were dissolved in 1 mL of acetone solvent, forming stock solutions of 2000 ppm tested compound.
The stock solutions were diluted ten times with 0.025% TWEEN® 20 surfactant in H2O (diluents) to obtain the solution at 200 ppm tested compound. A hand-held aspirator-type sprayer was used for spraying the solution to both sides of cotton leaves until runoff. The control plants (solvent check) were sprayed with the diluent only containing 10% by volume of acetone solvent. Treated plants were held in a holding room for 9 days at approximately 25° C. and ambient relative humidity (RH) prior to grading. Evaluation was conducted by counting the number of live 3-4 nymph stage per plant under a microscope. Percent control was measured by using Abbott's correction formula (W. S. Abbott, “A Method of Computing the Effectiveness of an Insecticide,” J. Econ. Entomol. 18 (1925), pp. 265-267) as follows. Corrected % Control=100*(X−Y)/X
X=No. of live nymphs on solvent check plants and
Y=No. of live nymphs on treated plants.
(§1) The comparative compounds were tested for insecticidal activities against GPA and WF pests using the same test protocols described above for the disclosed compounds.

[2] = tested on: Green Peach Aphid (Myzus persicae) (GPA) (MYZUPE); experiment: Green peach aphid (GPA) foliar spray bioassay on cabbage seedlings; assay type: in vivo; conditions: 72 h, 200 ppm foliar spray on cabbage seedlings, graded after three days, Abbott-corrected % control, disclosed compounds (TABLE 2), read-out: GPA % Control (or Mortality) rating
Description: Bioassay for GPA was prepared as follows: Cabbage seedlings grown in 3-inch pots, with 2-3 small (3-5 cm) true leaves, were used as test substrate. The seedlings were infested with 20-50 GPA (adult and nymph stages) one day prior to chemical application. Four pots with individual seedlings were used for each treatment. The tested compounds (2 mg) were dissolved in 2 mL of acetone/methanol (1:1) solvent to form stock solutions of 1000 ppm tested compound. The stock solutions were diluted five times with an aqueous solution containing 0.025% TWEEN® 20 surfactant, which is polyoxyethylene (20) sorbitan monolaurate, to obtain the solution at 200 ppm tested compound. A hand-held aspirator-type sprayer was used for spraying the solution to both sides of cabbage leaves until runoff. The control plants (solvent check) were sprayed with the diluent only containing 20% by volume of acetone/methanol (1:1) solvent. Treated plants were held in a holding room for three days at approximately 25° C. and ambient relative humidity (RH) prior to grading. Evaluation was conducted by counting the number of live aphids per plant under a microscope. Percent control was measured by using Abbott's correction formula (W. S. Abbott, “A Method of Computing the Effectiveness of an Insecticide,” J. Econ. Entomol. 18 (1925), pp. 265-267) as follows. Corrected % Control=100*(X−Y)/X
X=No. of live aphids on solvent check plants and
Y=No. of live aphids on treated plants
as §1

Row | SMILES | mortality at 200 ppm [1] | mortality at 200 ppm [2]
1 | CC(C)N1CCc2nn(-c3cccnc3)cc2C1=O [Compound F6, 5-Isopropyl-2-(3-pyridyl)-6,7-dihydropyrazolo[4,3-c]pyridin-4-one] | 80 to 100% | 80 to 100%
2 | O=C1c2cn(-c3cccnc3)nc2CCN1c1cc(C(F)(F)F)ccn1 [Compound F7, 2-(3-Pyridyl)-5-[4-(trifluoromethyl)-2-pyridyl]-6,7-dihydropyrazolo[4,3-c]pyridin-4-one] | 80 to 100% | 80 to 100%
3 | CCOC(=O)CN1CCc2nn(-c3cccnc3)cc2C1=O [Compound F8, ethyl 2-(4-oxo-2-(pyridin-3-yl)-6,7-dihydro-2H-pyrazolo[4,3-c]pyridin-5(4H)-yl)acetate] | 80 to 100% | 80 to 100%
4 | O=C1c2cn(-c3cccnc3)nc2CCN1c1ncccc1C(F)(F)F [Compound F10, 2-(3-Pyridyl)-5-[3-(trifluoromethyl)-2-pyridyl]-6,7-dihydropyrazolo[4,3-c]pyridin-4-one] | 0 to 80% | 0 to 80%
5 | CSCCC(=O)N1CCc2nn(-c3cccnc3)cc2C1=O [Compound F12, 5-(3-(methylthio)propanoyl)-2-(pyridin-3-yl)-6,7-dihydro-2H-pyrazolo[4,3-c]pyridin-4(5H)-one] | 0 to 80% | 80 to 100%
6 | O=C1c2cn(-c3cccnc3)nc2CCN1c1ccc(C(F)(F)F)cc1 [Compound F13, 2-(3-Pyridyl)-5-[4-(trifluoromethyl)phenyl]-6,7-dihydropyrazolo[4,3-c]pyridin-4-one] | 0 to 80% | 80 to 100%
7 | O=C1c2cn(-c3cccnc3)nc2CCN1c1ccc(OC(F)(F)F)cc1 [Compound F14, 2-(3-Pyridyl)-5-[4-(trifluoromethoxy)phenyl]-6,7-dihydropyrazolo[4,3-c]pyridin-4-one] | 0 to 80% | 80 to 100%
8 | COc1ccccc1CN1CCc2nn(-c3cccnc3)cc2C1=O [Compound F15, 5-[(2-Methoxyphenyl)methyl]-2-(3-pyridyl)-6,7-dihydropyrazolo[4,3-c]pyridin-4-one] | 80 to 100% | 0 to 80%
9 | O=C1c2cn(-c3cccnc3)nc2CCN1Cc1ccccc1F [Compound F17, 5-(2-fluorobenzyl)-2-(pyridin-3-yl)-6,7-dihydro-2H-pyrazolo[4,3-c]pyridin-4(5H)-one] | 80 to 100% | 0 to 80%
10 | COc1cccc(N2CCc3nn(-c4cccnc4)cc3C2=O)n1 [Compound F18, 5-(6-Methoxy-2-pyridyl)-2-(3-pyridyl)-6,7-dihydropyrazolo[4,3-c]pyridin-4-one] | 0 to 80% | 0 to 80%
11 | O=C1c2cn(-c3cccnc3)nc2CCN1CCSCCC(F)(F)F [Compound F19, 2-(pyridin-3-yl)-5-(2-((3,3,3-trifluoropropyl)thio)ethyl)-6,7-dihydro-2H-pyrazolo[4,3-c]pyridin-4(5H)-one] | 80 to 100% | 80 to 100%
12 | CSCN1CCc2nn(-c3cccnc3)cc2C1=O [Compound F20, 5-(Methylsulfanylmethyl)-2-(3-pyridyl)-6,7-dihydropyrazolo[4,3-c]pyridin-4-one] | 80 to 100% | 80 to 100%
13 | O=C1c2cn(-c3cccnc3)nc2CCN1c1cncc(C(F)(F)F)c1 [Compound F21, 2-(3-Pyridyl)-5-[5-(trifluoromethyl)-3-pyridyl]-6,7-dihydropyrazolo[4,3-c]pyridin-4-one] | 80 to 100% | 80 to 100%
14 | O=C1c2cn(-c3cccnc3)nc2CCN1c1cccc(OC(F)(F)F)c1 [Compound F22, 2-(3-Pyridyl)-5-[3-(trifluoromethoxy)phenyl]-6,7-dihydropyrazolo[4,3-c]pyridin-4-one] | 80 to 100% | 80 to 100%
15 | COc1ccc(CN2CCc3nn(-c4cccnc4)cc3C2=O)cc1 [Compound F23, 5-[(4-Methoxyphenyl)methyl]-2-(3-pyridyl)-6,7-dihydropyrazolo[4,3-c]pyridin-4-one] | 80 to 100% | 80 to 100%
16 | CN1CCc2nn(-c3cccnc3)cc2C1=O [Compound F28, 5-methyl-2-(pyridin-3-yl)-6,7-dihydro-2H-pyrazolo[4,3-c]pyridin-4(5H)-one] | 0 to 80% | 80 to 100%
17 | O=C1c2cn(-c3cccnc3)nc2CCN1Cc1cccc(C(F)(F)F)c1 [Compound F29, 2-(3-Pyridyl)-5-[[3-(trifluoromethyl)phenyl]methyl]-6,7-dihydropyrazolo[4,3-c]pyridin-4-one] | 80 to 100% | 80 to 100%
18 | C=CCN1CCc2nn(-c3cccnc3)cc2C1=O [Compound F31, 5-allyl-2-(pyridin-3-yl)-6,7-dihydro-2H-pyrazolo[4,3-c]pyridin-4(5H)-one] | 0 to 80% | 80 to 100%
19 | O=C1c2cn(-c3cccnc3)nc2CCN1Cc1ccccc1C(F)(F)F [Compound F32, 2-(3-Pyridyl)-5-[[2-(trifluoromethyl)phenyl]methyl]-6,7-dihydropyrazolo[4,3-c]pyridin-4-one] | 80 to 100% | 0 to 80%
20 | O=C1c2cn(-c3cccnc3)nc2CCN1c1ccc(C(F)(F)F)nc1 [Compound F33, 2-(3-Pyridyl)-5-[6-(trifluoromethyl)-3-pyridyl]-6,7-dihydropyrazolo[4,3-c]pyridin-4-one] | 0 to 80% | 80 to 100%
21 | O=C1c2cn(-c3cccnc3)nc2CCN1c1ncccn1 [Compound F34, 2-(3-Pyridyl)-5-pyrimidin-2-yl-6,7-dihydropyrazolo[4,3-c]pyridin-4-one] | 80 to 100% | 80 to 100%
22 | O=C1c2cn(-c3cccnc3)nc2CCN1c1ccc(C(F)(F)F)cn1 [Compound F37, 2-(pyridin-3-yl)-5-(5-(trifluoromethyl)pyrdin-2-yl)-6,7-dihydro-2H-pyrazolo[4,3-c]pyridin-4(5H)-one] | 80 to 100% | 80 to 100%
23 | O=C1c2cn(-c3cccnc3)nc2CCN1c1cccc(-c2ncccn2)n1 [Compound F38, 2-(3-Pyridyl)-5-(6-pyrimidin-2-yl-2-pyridyl)-6,7-dihydropyrazolo[4,3-c]pyridin-4-one] | < 0% | 0 to 80%
24 | N#CCN1CCc2nn(-c3cccnc3)cc2C1=O [Compound F39, 2-[4-Oxo-2-(3-pyridyl)-6,7-dihydropyrazolo[4,3-c]pyridin-5-yl]acetonitrile] | 0 to 80% | 80 to 100%
25 | CSCCN1CCc2nn(-c3cccnc3)cc2C1=O [Compound F40, 5-(2-(methylthio)ethyl)-2-(pyridin-3-yl)-6,7-dihydro-2H-pyrazolo[4,3-c]pyridin-4(5H)-one] | 80 to 100% | 80 to 100%
26 | O=C(CN1CCc2nn(-c3cccnc3)cc2C1=O)N1CCN(C2CCC2)CC1 [Compound F42, 5-[2-(4-Cyclobutylpiperazin-1-yl)-2-oxo-ethyl]-2-(3-pyridyl)-6,7-dihydropyrazolo[4,3-c]pyridin-4-one] | 80 to 100% | 80 to 100%
27 | O=C1c2cn(-c3cccnc3)nc2CCN1c1ccccn1 [Compound F43, 5-(pyridin-2-yl)-2-(pyridin-3-yl)-6,7-dihydro-2H-pyrazolo[4,3-c]pyridin-4(5H)-one] | 0 to 80% | 80 to 100%
